The source made the active and inactive calls. No cut-off for these calls is given here.

The values below come from ChEMBL document CHEMBL1139666, “Discovery and synthesis of a novel series of quinoline-based thrombin receptor (PAR-1) antagonists” (Bioorg Med Chem Lett, 2006).

One data set relates to Cynomolgus monkey. Briefly: Inhibition of platelet aggregation in cynomolgus monkey 2 hrs post dose iv. The format is functional, organism-based. To be noted: Macaca fascicularis.
With `C[C@H]1OC(=O)[C@@H]2C[C@@H]3CCCC[C@H]3[C@H](/C=C/c3ccc4cc(OCC(=O)O)ccc4n3)[C@H]12`, the inhibition entry was “Active”.

Another data set addresses T1, Proteinase-activated receptor 1 (Homo sapiens, UniProt P25116).
T1 sequence (P25116 whole entry): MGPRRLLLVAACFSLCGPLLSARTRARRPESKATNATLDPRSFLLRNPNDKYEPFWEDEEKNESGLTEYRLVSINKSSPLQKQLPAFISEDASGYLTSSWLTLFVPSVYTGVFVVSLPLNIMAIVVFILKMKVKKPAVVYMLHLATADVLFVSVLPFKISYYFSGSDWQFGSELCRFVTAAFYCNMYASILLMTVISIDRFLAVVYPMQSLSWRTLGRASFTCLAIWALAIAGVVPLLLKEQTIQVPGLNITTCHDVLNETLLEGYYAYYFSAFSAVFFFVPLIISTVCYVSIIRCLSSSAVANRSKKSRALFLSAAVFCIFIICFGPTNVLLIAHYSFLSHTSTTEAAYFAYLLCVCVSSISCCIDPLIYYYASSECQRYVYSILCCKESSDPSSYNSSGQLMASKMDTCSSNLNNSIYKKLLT
Briefly: Displacement of [3H]haTRAP from PAR1 in human platelet membrane. The format is cell membranes.
Conditions: not given
As for `C[C@H]1OC(=O)[C@@H]2C[C@@H]3CCCC[C@H]3[C@H](/C=C/c3ccc4cc(OCC(=O)N5CCOCC5)ccc4n3)[C@H]12`, the IC50 – broadly, the concentration that gives 50% inhibition – is 500 nM.
As to `C[C@H]1OC(=O)[C@@H]2C[C@@H]3CCCC[C@H]3[C@H](/C=C/c3ccc4cc(F)ccc4n3)[C@H]12` (racemic), the IC50 is 730 nM.
On the same count and under the same terms, under `C[C@H]1OC(=O)[C@@H]2C[C@@H]3CCCC[C@H]3[C@H](/C=C/c3ccc4cc(OCC(=O)Nc5ccccc5)ccc4n3)[C@H]12` stands 25 nM; under `C[C@H]1OC(=O)[C@@H]2C[C@@H]3CCCC[C@H]3[C@H](/C=C/c3ccc4cc(OCCNC(=O)OC(C)(C)C)ccc4n3)[C@H]12` (racemic), 275 nM.
The same measure, in the same setting: under `C[C@H]1OC(=O)[C@@H]2C[C@@H]3CCCC[C@H]3[C@H](/C=C/c3ccc4cc(NC(=O)C(C)(C)C)ccc4n3)[C@H]12` stands 2150 nM; under `COc1cccc2ccc(/C=C/[C@H]3[C@@H]4CCCC[C@H]4C[C@H]4C(=O)O[C@H](C)[C@@H]34)nc12` (racemic), 700 nM.
On the same count and under the same terms, under `C[C@H]1OC(=O)[C@@H]2C[C@@H]3CCCC[C@H]3[C@H](/C=C/c3ccc4cc(NC(=O)c5ccccc5)ccc4n3)[C@H]12` stands 219 nM.
Turning to `COc1ccc2nc(/C=C/[C@H]3[C@@H]4CCCC[C@H]4C[C@H]4C(=O)O[C@H](C)[C@@H]34)ccc2c1OC`, the IC50 came to 50 nM.
Still for that read-out and setting: under `Cc1cccc2ccc(/C=C/[C@H]3[C@@H]4CCCC[C@H]4C[C@H]4C(=O)O[C@H](C)[C@@H]34)nc12` (racemic) stands 390 nM.
The compound `C[C@H]1OC(=O)[C@@H]2C[C@@H]3CCCC[C@H]3[C@H](/C=C/c3ccc4cc(-c5cccc(C(F)(F)F)c5)ccc4n3)[C@H]12` returned an IC50 of 300 nM.
The same measure, in the same setting: then `COc1ccc2nc(/C=C/[C@H]3[C@@H]4CCCC[C@H]4C[C@H]4C(=O)O[C@H](C)[C@@H]34)ccc2c1Cl` (racemic), with 800 nM.
As for `C[C@H]1OC(=O)[C@@H]2C[C@@H]3CCCC[C@H]3[C@H](/C=C/c3ccc4cc(OC(C)(C)C(N)=O)ccc4n3)[C@H]12`, the IC50 was 800 nM.
On the same count and under the same terms, then `C[C@H]1OC(=O)[C@@H]2C[C@@H]3CCCC[C@H]3[C@H](/C=C/c3ccc4cc(Cl)ccc4n3)[C@H]12` (racemic), with 155 nM; and `CC(=O)Nc1ccc2nc(/C=C/[C@H]3[C@@H]4CCCC[C@H]4C[C@H]4C(=O)O[C@H](C)[C@@H]34)ccc2c1`, with 100 nM.
`C[C@H]1OC(=O)[C@@H]2C[C@@H]3CCCC[C@H]3[C@H](/C=C/c3ccc4cc(OC(C)(C)C(=O)Nc5ccccc5)ccc4n3)[C@H]12` displayed an IC50 of 500 nM.
Same read-out and setting: then `C[C@H]1OC(=O)[C@@H]2C[C@@H]3CCCC[C@H]3[C@H](/C=C/c3ccc4cc(O)ccc4n3)[C@H]12`, with 6.3 nM.
On the same count and under the same terms, under `C[C@H]1OC(=O)[C@@H]2C[C@@H]3CCCC[C@H]3[C@H](/C=C/c3ccc4cc(OCc5ccccc5)ccc4n3)[C@H]12` stands 1250 nM.
As for `C[C@H]1OC(=O)[C@@H]2C[C@@H]3CCCC[C@H]3[C@H](/C=C/c3ccc4cc(-c5cccs5)ccc4n3)[C@H]12`, the IC50 worked out at 300 nM.
Still for that read-out and setting: under `C[C@H]1OC(=O)[C@@H]2C[C@@H]3CCCC[C@H]3[C@H](/C=C/c3ccc4cc(N)ccc4n3)[C@H]12` stands 30 nM; under `C[C@H]1OC(=O)[C@@H]2C[C@@H]3CCCC[C@H]3[C@H](/C=C/c3ccc4cc(OCC(N)=O)ccc4n3)[C@H]12`, 1000 nM; under `C[C@H]1OC(=O)[C@@H]2C[C@@H]3CCCC[C@H]3[C@H](/C=C/c3ccc4cc(OCC(=O)O)ccc4n3)[C@H]12`, 29 nM.
The compound `CCOc1ccc2nc(/C=C/[C@H]3[C@@H]4CCCC[C@H]4C[C@H]4C(=O)O[C@H](C)[C@@H]34)ccc2c1` (racemic) registered an IC50 of 125 nM.
`Cc1ccc2ccc(/C=C/[C@H]3[C@@H]4CCCC[C@H]4C[C@H]4C(=O)O[C@H](C)[C@@H]34)nc2c1` (racemic): the IC50 is 150 nM.
For the compound `C[C@H]1OC(=O)[C@@H]2C[C@@H]3CCCC[C@H]3[C@H](/C=C/c3ccc4cc(-c5ccsc5)ccc4n3)[C@H]12`, the IC50 was found to be 50 nM.
On the same count and under the same terms, then `CCCC(=O)Nc1ccc2nc(/C=C/[C@H]3[C@@H]4CCCC[C@H]4C[C@H]4C(=O)O[C@H](C)[C@@H]34)ccc2c1`, with 28 nM; and `C[C@H]1OC(=O)[C@@H]2C[C@@H]3CCCC[C@H]3[C@H](/C=C/c3ccc4cc(OCC(=O)NC5CC5)ccc4n3)[C@H]12`, with 290 nM.
Same read-out and setting: then `CCC(=O)Nc1ccc2nc(/C=C/[C@H]3[C@@H]4CCCC[C@H]4C[C@H]4C(=O)O[C@H](C)[C@@H]34)ccc2c1`, with 68 nM.

The subject of the next data set is Cynomolgus monkey. Briefly: Inhibition of platelet aggregation in orally dosed cynomolgus monkey. To be noted: Macaca fascicularis. The data set is classed as functional, organism-based.
As to `C[C@H]1OC(=O)[C@@H]2C[C@@H]3CCCC[C@H]3[C@H](/C=C/c3ccc4cc(OCC(=O)O)ccc4n3)[C@H]12`, the inhibition entry is “inactive”.

Test system in the next data set: not listed separately
Briefly: AUC(0-4h) in cynomolgus monkey at 10 mg/kg. The data set is classed as ADME, organism-based, Macaca fascicularis. To be noted: plasma. On the set-up: time < 5 hr, dose 10 mg/kg.
As for `C[C@H]1OC(=O)[C@@H]2C[C@@H]3CCCC[C@H]3[C@H](/C=C/c3ccc4cc(O)ccc4n3)[C@H]12`, the exposure AUC(0-t) (commonly exposure summed from dosing to a finite time, without extrapolation to infinity) at 5 h was 826 ng·h/mL.
On the same count and under the same terms, then `C[C@H]1OC(=O)[C@@H]2C[C@@H]3CCCC[C@H]3[C@H](/C=C/c3ccc4cc(OCC(=O)O)ccc4n3)[C@H]12`, with 17 ng·h/mL.

The target of the next data set is T1, Proteinase-activated receptor 1. Briefly: Displacement of [3H]haTRAP from PAR1 in human platelet membrane at […]. The format is cell membranes.
Conditions: not given
With `C[C@H]1OC(=O)[C@@H]2C[C@@H]3CCCC[C@H]3[C@H](/C=C/c3ccc4cc(OCCN)ccc4n3)[C@H]12` (racemic), the IC50 result was “Not Active”.
Same read-out and setting: under `COc1cc(/C=C/[C@H]2[C@@H]3CCCC[C@H]3C[C@H]3C(=O)O[C@H](C)[C@@H]23)nc2ccccc12` (racemic) stands “Not Active”.
For the compound `C[C@H]1OC(=O)[C@@H]2C[C@@H]3CCCC[C@H]3[C@H](/C=C/c3cc(OCc4ccccc4)c4ccccc4n3)[C@H]12` (racemic), the IC50 result was “Not Active”.
The same measure, in the same setting: under `C[C@H]1OC(=O)[C@@H]2C[C@@H]3CCCC[C@H]3[C@H](/C=C/c3ccc4cc(OC(F)(F)F)ccc4n3)[C@H]12` stands “Not Active”.
